Test results published in patent US20100016298A1, “Theramutein modulators” (priority 2005, published 2010).

The compounds below were run against T1, Ba/F3 cells expressing the p210Bcr-Abl-T315I theramutein (Homo sapiens, UniProt P00519, T315I, cells depend on it) (assay: cellular assay system: growth inhibition (cell count), Ba/F3 T315I cell line). Conditions: concentration inhibiting growth of the cell line by 50%, read-out: IC50 activity category, T315I.
T1 construct: IC50 activity category, T315I; T315I cell line; even at 10 μM concentration; fused on or other part: P11274 (Breakpoint cluster region protein)
Assay type: cell-based, murine
Oc1ccccc1/C=N/Nc1ncc(F)c(N2CCOCC2)n1 was tested, and the GI50 was < 10 µM. With Fc1cnc(N/N=C/c2ccccn2)nc1N1CCOCC1 the GI50 was < 1 µM. Oc1ccc(Br)cc1/C=N/Nc1ncc(F)c(N2CCOCC2)n1 was tested, and the GI50 was < 1 µM. In the case of Cc1ccccc1/C=N/Nc1ncc(F)c(N2CCOCC2)n1, the GI50 was > 10 µM. For Cc1ccc(/C=N/Nc2ncc(F)c(N3CCOCC3)n2)cc1, the GI50 was > 10 µM. For Fc1cnc(N/N=C/c2ccccc2)nc1N1CCOCC1, the GI50 was > 10 µM. O=C(Nc1cccc(C(F)(F)F)c1)c1cc(Cl)c(O)c(/C=N\Nc2ncc(F)c(N3CCOCC3)n2)c1 was tested, and the GI50 was < 1 µM. In the case of O=C(Nc1cccc(C(F)(F)F)c1)c1cccc(/C=N/Nc2ncc(F)c(N3CCOCC3)n2)n1, the GI50 was > 10 µM. For O=C(Nc1cccc(C(F)(F)F)c1)c1ccc(/C=N/Nc2ncc(F)c(N3CCOCC3)n2)nc1, the GI50 was < 1 µM. With Fc1cnc(N/N=C/c2ccc(-c3cccc(C(F)(F)F)c3)cn2)nc1N1CCOCC1 the GI50 was < 1 µM. For O=C(C/C=N/Nc1ncc(F)c(N2CCOCC2)n1)Nc1cccc(C(F)(F)F)c1, the GI50 was > 10 µM. For Cc1cccc(Cl)c1NC(=O)C/C=N/Nc1ncc(F)c(N2CCOCC2)n1, the GI50 was > 10 µM. With Fc1cnc(N/N=C/c2ccc(Nc3ccc(N4CCOCC4)cc3)cn2)nc1N1CCOCC1 the GI50 was < 1 µM. For Fc1cnc(N/N=C/c2ccc(Nc3ccc(-c4ccccn4)c(Cl)c3)cn2)nc1N1CCOCC1, the GI50 was < 1 µM. For CC(C(=O)O)c1ccc(Nc2ccc(/C=N/Nc3ncc(F)c(N4CCOCC4)n3)nc2)cc1 (centres unmarked), the GI50 was > 10 µM. For Fc1cnc(N/N=C/c2ccc(Nc3cccc(-n4ccnc4)c3)cn2)nc1N1CCOCC1, the GI50 was < 1 µM. With Cc1cc(Nc2ccc(/C=N/Nc3ncc(F)c(N4CCOCC4)n3)nc2)cc(N2CCNCC2)c1 the GI50 was < 1 µM. With O=C(NNc1ncc(F)c(N2CCOCC2)n1)c1ccc(Nc2cccc(C(F)(F)F)c2)cn1 the GI50 was < 1 µM. With Cc1cc(Nc2cccc(C(F)(F)F)c2)ccc1/C=N/Nc1ncc(F)c(N2CCOCC2)n1 the GI50 was > 10 µM. In the case of CN(C)c1cc(O)cc(Nc2ccc(/C=N/Nc3ncc(F)c(N4CCOCC4)n3)nc2)c1, the GI50 was < 1 µM. With Fc1cnc(N/N=C/c2ccc(Nc3cccc(C(F)(F)F)c3)cn2)nc1-c1cncc(-c2ccccc2)c1 the GI50 was < 1 µM. In the case of Fc1cnc(N/N=C/c2ccc(Nc3cccc(C(F)(F)F)c3)cn2)nc1-c1cncc(C2CC2)c1, the GI50 was < 10 µM. For Oc1cccc(Nc2cccc(Nc3ccc(/C=N/Nc4ncc(F)c(N5CCOCC5)n4)nc3)c2)c1, the GI50 was < 1 µM.
